Where two headings read alike, the source gives them in different places.
What was measured:
[1] = system: patients with HD; details: for PBA Irritability, Severity×Frequency, change from baseline, Wk 52 Δ to placebo: BL TFC≥7
Protocol: The PBA-s is a brief semi-structured interview covering the most common behavioral and psychiatric manifestations of HD. […] Severity and frequency scores are multiplied to produce an overall ‘PBA score’ for each symptom.
The PBA-s is a brief semi-structured interview covering the most common behavioral and psychiatric manifestations of HD.
The total PBA score is calculated by the sum of all PBA-s scores across symptoms/domains.

[2] = system: patients with HD
Source text: The TFC scale of the UHDRS is a standardized scale used to assess 5 functional domains associated with disability shown below (occupation, finances, domestic chores (e.g. laundry, washing dishes), activities of daily living, and care level). The TFC score has a range of 0-13 and is a well-established endpoint for trials aiming disease progression. […] The TFC score is accepted by regulators and often considered the most widely accepted tool for disease procession in HD patients. Additionally, TFC is considered the gold standard for measuring HD rate of functional decline. […] The floor and ceiling effects make TFC scores more sensitive to change in early stage HD than in late stage HD.
Occupation: 0=unable, 1=marginal work only, 2=reduced capacity for usual job, 3=normal.
Finances: 0=unable, 1=major assistance, 2=slight assistance, 3=normal.
Domestic Chores: 0=unable, 1=impaired, 2=normal.
Activities of Daily Living (ADL): 0=total care, 1=gross tasks only, 2=minimal impairment, 3=normal.
Care level: 0=fill time skill nursing, 1=home or chronic care, 2=home.

[3] = 45 mg bid, Week 26, Stage 1 BL TFC 11-13
[4] = 45 mg bid, N = 37, observed data responder analysis, number (%)

CCCN1CCC(c2cccc(S(C)(=O)=O)c2)CC1 [pridopidine, 4-[3-(methylsulfonyl)phenyl]-1-propyl-piperidine]
Change from baseline in PBA Depressed Mood, Severity×Frequency, Δ to placebo ([1]; 45 mg bid, Week 26, ALL): −0.29 | PBA Disoriented Behavior, Severity×Frequency, change from baseline, Δ to placebo ([1]; 45 mg bid, Week 26, ALL, p value 0.2864): −0.2 | PBA Obsessive-Compulsive, Severity×Frequency, change from baseline, Δ to placebo ([1]; 45 mg bid, Week 26, ALL, p value 0.8081): 0.1 | Change from baseline in PBA Depressed Mood, Severity×Frequency, Δ to placebo [1, 3]: −0.63 | PBA Obsessive-Compulsive, Severity×Frequency, change from baseline, Δ to placebo ([1]; 45 mg bid, Week 26, Stage 1 BL TFC 11-13, p value 0.0035): −2.11 | PBA Disoriented Behavior, Severity×Frequency, change from baseline, Δ to placebo ([1]; 45 mg bid, Week 26, Stage 1 BL TFC 11-13, p value 0.0381): −0.19 | Change from baseline PBA Irritability, Severity×Frequency, Δ to placebo ([1]; 45 mg bid, Week 52, ALL): −1.03 | PBA Obsessive-Compulsive, Severity×Frequency, change from baseline, Δ to placebo ([1]; 45 mg bid, Week 52, ALL, p value 0.5733): −0.24 | PBA Irritability, Severity×Frequency, change from baseline, Δ to placebo ([1]; 45 mg bid, Week 52, BL TFC<7, p value 0.0165): −2.42 | PBA Irritability, Severity×Frequency, change from baseline, Wk 52 Δ to placebo ([1]; 45 mg bid, Week 52, p value 0.1789): −0.59 | PBA Obsessive-Compulsive, Severity×Frequency, change from baseline, Δ to placebo ([1]; 45 mg bid, Week 52, Stage 1 BL TFC 11-13, p value 0.007): −2.73 | PBA Irritability, Severity×Frequency, change from baseline, Δ to placebo ([1]; 45 mg bid, Week 52, Stage 3-5 BL TFC 0-6, p value 0.0165): −2.42 | Change from baseline in PBA Depressed Mood, Severity×Frequency, Δ to placebo ([1]; 67.5 mg bid, Week 26, ALL): −0.65 | PBA Disoriented Behavior, Severity×Frequency, change from baseline, Δ to placebo ([1]; 67.5 mg bid, Week 26, ALL, p value 0.1357): −0.28 | PBA Obsessive-Compulsive, Severity×Frequency, change from baseline, Δ to placebo ([1]; 67.5 mg bid, Week 26, ALL, p value 0.2512): −0.45 | Change from baseline in PBA Depressed Mood, Severity×Frequency, Δ to placebo ([1]; 67.5 mg bid, Week 26, Stage 1 BL TFC 11-13): −2.01 | PBA Obsessive-Compulsive, Severity×Frequency, change from baseline, Δ to placebo ([1]; 67.5 mg bid, Week 26, Stage 1 BL TFC 11-13, p value 0.0035): −2.03 | PBA Disoriented Behavior, Severity×Frequency, change from baseline, Δ to placebo ([1]; 67.5 mg bid, Week 26, Stage 1 BL TFC 11-13, p value 0.0615): −0.16 | Change from baseline PBA Irritability, Severity×Frequency, Δ to placebo ([1]; 67.5 mg bid, Week 52, ALL): −0.63 | PBA Obsessive-Compulsive, Severity×Frequency, change from baseline, Δ to placebo ([1]; 67.5 mg bid, Week 52, ALL, p value 0.5068): −0.28 | PBA Irritability, Severity×Frequency, change from baseline, Δ to placebo ([1]; 67.5 mg bid, Week 52, BL TFC<7, p value 0.0429): −1.78 | PBA Irritability, Severity×Frequency, change from baseline, Wk 52 Δ to placebo ([1]; 67.5 mg bid, Week 52, p value 0.466): −0.33 | PBA Obsessive-Compulsive, Severity×Frequency, change from baseline, Δ to placebo ([1]; 67.5 mg bid, Week 52, Stage 1 BL TFC 11-13, p value 0.0011): −3.24 | PBA Irritability, Severity×Frequency, change from baseline, Δ to placebo ([1]; 67.5 mg bid, Week 52, Stage 3-5 BL TFC 0-6, p value 0.0429): −1.78 | Change from baseline in PBA Depressed Mood, Severity×Frequency, Δ to placebo ([1]; 90 mg bid, Week 26, ALL): −0.34 | PBA Disoriented Behavior, Severity×Frequency, change from baseline, Δ to placebo ([1]; 90 mg bid, Week 26, ALL, p value 0.607): −0.09 | PBA Obsessive-Compulsive, Severity×Frequency, change from baseline, Δ to placebo ([1]; 90 mg bid, Week 26, ALL, p value 0.7541): −0.12 | Change from baseline in PBA Depressed Mood, Severity×Frequency, Δ to placebo ([1]; 90 mg bid, Week 26, Stage 1 BL TFC 11-13): −0.84 | PBA Obsessive-Compulsive, Severity×Frequency, change from baseline, Δ to placebo ([1]; 90 mg bid, Week 26, Stage 1 BL TFC 11-13, p value 0.0251): −1.71 | PBA Disoriented Behavior, Severity×Frequency, change from baseline, Δ to placebo ([1]; 90 mg bid, Week 26, Stage 1 BL TFC 11-13, p value 0.093): −0.16 | Change from baseline PBA Irritability, Severity×Frequency, Δ to placebo ([1]; 90 mg bid, Week 52, ALL): −1.01 | PBA Obsessive-Compulsive, Severity×Frequency, change from baseline, Δ to placebo ([1]; 90 mg bid, Week 52, ALL, p value 0.7508): −0.13 | PBA Irritability, Severity×Frequency, change from baseline, Δ to placebo ([1]; 90 mg bid, Week 52, BL TFC<7, p value 0.0422): −1.79 | PBA Irritability, Severity×Frequency, change from baseline, Wk 52 Δ to placebo ([1]; 90 mg bid, Week 52, p value 0.0311): −0.95 | PBA Obsessive-Compulsive, Severity×Frequency, change from baseline, Δ to placebo ([1]; 90 mg bid, Week 52, Stage 1 BL TFC 11-13, p value 0.021): −2.47 | PBA Irritability, Severity×Frequency, change from baseline, Δ to placebo ([1]; 90 mg bid, Week 52, Stage 3-5 BL TFC 0-6, p value 0.0422): −1.79 | Change from baseline in PBA Depressed Mood, Severity×Frequency, Δ to placebo ([1]; 112.5 mg bid, Week 26, ALL): −0.52 | PBA Obsessive-Compulsive, Severity×Frequency, change from baseline, Δ to placebo ([1]; 112.5 mg bid, Week 26, ALL, p value 0.1061): −0.63 | PBA Disoriented Behavior, Severity×Frequency, change from baseline, Δ to placebo ([1]; 112.5 mg bid, Week 26, ALL, p value 0.6771): −0.08 | Change from baseline in PBA Depressed Mood, Severity×Frequency, Δ to placebo ([1]; 112.5 mg bid, Week 26, Stage 1 BL TFC 11-13): −1.43 | PBA Obsessive-Compulsive, Severity×Frequency, change from baseline, Δ to placebo ([1]; 112.5 mg bid, Week 26, Stage 1 BL TFC 11-13, p value 0.0114): −1.73 | PBA Disoriented Behavior, Severity×Frequency, change from baseline, Δ to placebo ([1]; 112.5 mg bid, Week 26, Stage 1 BL TFC 11-13, p value 0.0357): −0.18 | Change from baseline PBA Irritability, Severity×Frequency, Δ to placebo ([1]; 112.5 mg bid, Week 52, ALL): −0.84 | PBA Obsessive-Compulsive, Severity×Frequency, change from baseline, Δ to placebo ([1]; 112.5 mg bid, Week 52, ALL, p value 0.7789): −0.12 | PBA Irritability, Severity×Frequency, change from baseline, Δ to placebo ([1]; 112.5 mg bid, Week 52, BL TFC<7, p value 0.0542): −1.71 | PBA Irritability, Severity×Frequency, change from baseline, Wk 52 Δ to placebo ([1]; 112.5 mg bid, Week 52, p value 0.1927): −0.6 | PBA Obsessive-Compulsive, Severity×Frequency, change from baseline, Δ to placebo ([1]; 112.5 mg bid, Week 52, Stage 1 BL TFC 11-13, p value 0.005): −2.73 | PBA Irritability, Severity×Frequency, change from baseline, Δ to placebo ([1]; 112.5 mg bid, Week 52, Stage 3-5 BL TFC 0-6, p value 0.0542): −1.71 | proportion of subjects that showed no decline in TFC ([2]; 45 mg bid versus placebo, over 52 weeks): significant difference | proportion of early stage subjects with an improvement of ≥1 points on TFC at 52 weeks [2, 4]: 10 (27%) | proportion of early stage subjects with no deterioration on TFC (score ≥0) at 52 weeks [2, 4]: 30 (81%) | decline in the UHDRS-TFC score compared with placebo ([2]; 45 mg bid, PRIDE-HD): less decline | Change from baseline in UHDRS Total Functional Capacity, Δ to placebo ([2]; 45 mg bid, Week 26, ALL): 0.34 | UHDRS Total Functional Capacity, change from baseline, Δ to placebo ([2]; 45 mg bid, Week 26, BL TFC<7 (caption FIG. 21a), p value 0.0359): 0.56 | UHDRS Total Functional Capacity, change from baseline, Wk 26 Δ to placebo ([2]; 45 mg bid, Week 26, BL TFC≥7, p value 0.0359): 0.56 | Change from baseline in UHDRS Total Functional Capacity, Δ to placebo [2, 3]: 1.65 | Change from baseline in UHDRS Total Functional Capacity, Δ to placebo ([2]; 45 mg bid, Week 52, ALL): 0.87 | UHDRS Total Functional Capacity, change from baseline, Δ to placebo ([2]; 45 mg bid, Week 52, BL TFC<7, p value 0.9108): 0.07 | UHDRS Total Functional Capacity, change from baseline, Wk 52 Δ to placebo ([2]; 45 mg bid, Week 52, BL TFC≥7, p value 0.0003): 1.16 | Change from baseline in UHDRS Total Functional Capacity, Δ to placebo ([2]; 45 mg bid, Week 52, Stage 1 BL TFC 11-13): 1.89 | Change from baseline in UHDRS Total Functional Capacity, Δ to placebo ([2]; 45 mg bid, Week 52, Stage 2 BL TFC 7-10): 0.94 | UHDRS Total Functional Capacity, change from baseline, Δ to placebo ([2]; 45 mg bid, week 26, BL CAG Repeats <44, p value 0.056): 0.6

— patent US11207310B2 (PRILENIA NEUROTHERAPEUTICS LTD., priority 2016, dated 2021)
